# In patent publication US20250135026A1, “Antibody Drug Conjugates” (BeiGene Switzerland GmbH, priority 2021, published 2025):
# Read-outs that look alike come from different tables or passages of the source.
# How the values were obtained:
# A375 = experiment: Compounds cellular killing (Cell Titer-Glo, 6 days, 2D); assay type: cell-based, human; details: for cell-killing activity compared with Dxd: A375
# Method: (§1) The cell line was grown in a humidified 5% CO2 atmosphere at 37° C., and was regularly tested for the presence of mycoplasma with MycoAlert™ PLUS Mycoplasma Detection Kit (Lonza, LT07-710).
# (§2) Incubation at 37° C., 5% CO2, overnight.
# (§3) Adding the fresh growth-medium containing the varying concentrations of compounds, 50 ul/well.
# (§4) Incubation at 37° C., 5% CO2, 6 days.
# (§5) The cell viability detected by Cell Titer-Glo (Promega, G7573). Add 70 µL/well of CellTiter-Glo® Reagent in each well.
# (§6) Allow the plates to incubate at room temperature for 10 minutes to stabilize luminescent signal.
# (§7) Analyze with Microplate Reader.
# Calu-6 = experiment: as above; assay type: cell-based; details: for cell-killing activity compared with Dxd: Calu-6
# Method: as §1, §2, §3, §4, §5, §6, §7
# HCC1569 = experiment: Payload cellular killing, 2D; assay type: cell-based; details: HCC1569, 2D (HER3 +++)
# MDA-MB-453 = experiment: Payload cellular killing, 2D; assay type: cell-based, human; details: MDA-MB-453, 2D (HER3 +++)
# Method: as §1
# cathepsin B = cathepsin B (Homo sapiens, UniProt P07858); experiment: Cathepsin B mediated rhodamine release; assay type: biochemical; details: 150 nM, 0.3 unit activated cathepsin B, pH 5.5, 37° C., FIG. 21
# Method: CTSB was activated by incubation at ambient temperature for 15 min with 30 mM dithiothreitol and 15 mM EDTA at PH5.5.
# Reaction buffer preparation: 25 mM sodium acetate & 1 mM EDTA, PH5.5.
# Adding 150 nM NAcCys-13 & NAcCys-14 & NAcCys-15 & NAcCys-16 & NAcCys-17 and 0.3 unit activated cathepsin B mixture according to the experiment template.
# The reaction mixtures were incubated at 37° C. immediately in the reader, then start reading using the kinetic set-up described. (TECAN SPARK: excitation/emission: 485/520 nm) (120 cycles, every one min) Gain Manual: 77%
# Data analysis by GraphPad Prism 9 is illustrated in FIG. 21.
# Ovcar3 (PTK7 high) = experiment: Cellular killing on PTK7 cell lines (Cell-Titer-Glo, 7 days); assay type: cell-based; details: Anti-proliferation
# Method: (§8) The plates were incubated for 7 days at 37° C., 5% CO2. Next, 50 μL of Cell-Titer-Glo reagent was added to each well. The mixture was mixed on an orbital shaker for 10 mins to allow cell lysis. Then, the luminescent signal was measured using BMG PheraStar with the luminescent protocol. The inhibition of Ovcar3 and A549 cell lines is illustrated in FIG. 22 and FIG. 23, respectively.
# A549 (PTK7 low) = experiment: as above; assay type: cell-based; details: Anti-proliferation
# Method: as §8
# [1] = ADC hydrophobicity evaluation by HIC (retention time of DAR8 species); assay type: physicochemical; details: HIC method with isopropanol in the mobile phase (values marked *, Method 1)
# Description: ADC Hydrophobicity Evaluation
# ADC with more hydrophobic property would appeared with later retention time from HIC (hydrophobicity interaction column) chromatography. In this invention, […].
# The HIC retention time (HIC RT, here only HIC RT of DAR8 species is listed in the table) can be seen as a measure to evaluate ADC's hydrophobicity.
# [2] = Table 28, payload, A375, 2D (Her3 ++)
# [3] = Table 29, payload, A375, 6d, 2D (Her3++)
# [4] = Table 28, payload, Calu-6, 2D (HER3 neg.)
# [5] = Table 29, payload, Clau6, 6d, 2D (Her3 neg)
# [6] = Homo sapiens, Table 28, payload
# [7] = Homo sapiens, Table 28, payload, read-out: Emax
molecule,measurement,setting,value
"CC[C@@]1(O)C(=O)OCc2c1cc1n(c2=O)Cc2c-1nc1cc(F)c(C)c3c1c2[C@@H](NC(=O)C(C)(F)CO)CC3 (single isomer, unassigned) [Example 68]",cell-killing activity compared with Dxd,A375,less potent than Dxd
same,Emax,"A375; Homo sapiens, A-375, Table 21, A375, read-out: Emax",99.9%
same,EC50,"A375; Table 21, A375",4.5 nM
same,cell-killing activity compared with Dxd,Calu-6,less potent than Dxd
same,Emax,"Calu-6; Homo sapiens, Calu-6, Table 21, Calu-6, read-out: Emax",98.5%
same,EC50,"Calu-6; Table 21, Calu-6",1.8 nM
"CC[C@@]1(O)C(=O)OCc2c1cc1n(c2=O)Cc2c-1nc1cc(F)c(C)c3c1c2[C@@H](NC(=O)C(C)(F)CO)CC3 (single isomer, unassigned) [Example 69]",cell-killing activity compared with Dxd,A375,stronger cell-killing activity than Dxd
same,EC50,"A375; Table 21, A375",1.5 nM
same,Emax,"A375; Table 21, A375",99.9%
same,cell-killing activity compared with Dxd,Calu-6,stronger cell-killing activity than Dxd
same,EC50,"Calu-6; Table 21, Calu-6",0.6 nM
same,Emax,"Calu-6; Table 21, Calu-6",98.2%
"CC[C@@]1(O)C(=O)OCc2c1cc1n(c2=O)Cc2c-1nc1cc(F)c(C)c3c1c2[C@@H](NC(=O)C(C)(F)CO)CC3 (single isomer, unassigned) [Isomer 1 of Compounds 68 & 69]",Emax,"A375; Homo sapiens, A-375, Table 29, payload, A375, 6d, 2D (Her3++), read-out: Emax",99.9%
same,EC50,A375; [2],4.5 nM
same,EC50,A375; [3],4.5 nM
same,Emax,"HCC1569; Homo sapiens, HCC1569, Table 28, payload, read-out: Emax",92%
same,EC50,"HCC1569; Table 28, payload",3.2 nM
same,Emax,"Calu-6; Homo sapiens, Calu-6, Table 28, payload, Calu-6, 2D (HER3 neg.), read-out: Emax",98.5%
same,Emax,"Calu-6; Homo sapiens, Calu-6, […], Table 29, payload, Clau6, 6d, 2D (Her3 neg), read-out: Emax",98.5%
same,EC50,Calu-6; [4],1.8 nM
same,EC50,Calu-6; [5],1.8 nM
same,EC50,"MDA-MB-453; Homo sapiens, MDA-MB-453, Table 28, payload",2.8 nM
same,Emax,"MDA-MB-453; Homo sapiens, MDA-MB-453, Table 28, payload, read-out: Emax",97.9%
"CC[C@@]1(O)C(=O)OCc2c1cc1n(c2=O)Cc2c-1nc1cc(F)c(C)c3c1c2[C@@H](NC(=O)C(C)(F)CO)CC3 (single isomer, unassigned) [Isomer 2 of Compounds 68 & 69]",EC50,A375; [2],1.5 nM
same,Emax,A375; [2],99.9%
same,EC50,A375; [3],1.5 nM
same,Emax,A375; [3],99.9%
same,EC50,"HCC1569; Table 28, payload",0.7 nM
same,Emax,"HCC1569; Table 28, payload",91.6%
same,EC50,Calu-6; [4],0.6 nM
same,Emax,Calu-6; [4],98.2%
same,EC50,Calu-6; [5],0.6 nM
same,Emax,Calu-6; [5],98.2%
same,EC50,"MDA-MB-453; Table 28, payload",1.5 nM
same,Emax,"MDA-MB-453; Table 28, payload",98.6%
"CCOC(=O)Nc1ccc2c(c1)Oc1cc(NC(=O)OCc3ccc(NC(=O)[C@H](CCCNC(N)=O)NC(=O)[C@@H](NC(=O)CCOCCOCCOCCN4C(=O)CC(SC[C@H](N)C(=O)O)C4=O)C(C)C)cc3)ccc1C21OC(=O)c2ccccc21 (some centres unmarked) [NAcCys-13, reference compound]","cathepsin B mediated rhodamine release rate, rank",cathepsin B,NAcCys-15˜NAcCys-13 (benchmark)>NAcCys-14>NAcCys-17
CCOC(=O)Nc1ccc2c(c1)Oc1cc(NC(=O)OCc3ccc(NC(=O)[C@H](CCCNC(N)=O)NC(=O)[C@@H](NC(=O)[C@H](CNS(N)(=O)=O)NC(=O)CCOCCOCCOCCN4C(=O)CC(SC[C@H](NC(C)=O)C(=O)O)C4=O)C(C)C)cc3)ccc1C21OC(=O)c2ccccc21 (some centres unmarked) [NAcCys-14],"cathepsin B mediated rhodamine release rate, rank",cathepsin B,NAcCys-15˜NAcCys-13 (benchmark)>NAcCys-14>NAcCys-17
CCOC(=O)Nc1ccc2c(c1)Oc1cc(NC(=O)OCc3ccc(NC(=O)[C@H](CCCNC(N)=O)NC(=O)[C@@H](NC(=O)[C@H](CS(=O)(=O)O)NC(=O)CCOCCOCCOCCN4C(=O)CC(SC[C@H](NC(C)=O)C(=O)O)C4=O)C(C)C)cc3)ccc1C21OC(=O)c2ccccc21 (some centres unmarked) [NAcCys-15],"cathepsin B mediated rhodamine release rate, rank",cathepsin B,NAcCys-15˜NAcCys-13 (benchmark)>NAcCys-14>NAcCys-17
"CCc1c2c(nc3ccc(O)cc13)-c1cc3c(c(=O)n1C2)COC(=O)[C@]3(O)CC [SN-38, reference compound]",EC50,"A375; Homo sapiens, A-375, Table 28, payload, A375, 2D (Her3 ++)",3.4 nM
same,Emax,"A375; Homo sapiens, A-375, Table 28, payload, A375, 2D (Her3 ++), read-out: Emax",99.9%
same,EC50,HCC1569; [6],5 nM
same,Emax,HCC1569; [7],95%
same,EC50,"Calu-6; Homo sapiens, Calu-6, Table 28, payload, Calu-6, 2D (HER3 neg.)",2.9 nM
same,Emax,"Calu-6; Homo sapiens, Table 28, payload, Calu-6, 2D (HER3 neg.), read-out: Emax",99.5%
same,EC50,MDA-MB-453; [6],2.4 nM
same,Emax,MDA-MB-453; [7],98.6%
"ADC1-4: antibody: Cofetuzumab (conjugate, chains of the INN, looked up, drug conjugate, antibody: Cofetuzumab) VH: QVQLVQSGPEVKKPGASVKVSCKASGYTFTDYAVHWVRQAPGKRLEWIGVISTYNDYTYNNQDFKGRVTMTRDTSASTAYMELSRLRSEDTAVYYCARGNSYFYALDYWGQGTSVTVSS VL: EIVLTQSPATLSLSPGERATLSCRASESVDSYGKSFMHWYQQKPGQAPRLLIYRASNLESGIPARFSGSGSGTDFTLTISSLEPEDFAVYYCQQSNEDPWTFGGGTKLEIK",Emax,Ovcar3 (PTK7 high),93.45%
same,IC50,Ovcar3 (PTK7 high),0.32 nM
same,Emax,A549 (PTK7 low),20.12%
same,IC50,A549 (PTK7 low),> 200 nM
same,HIC DAR8 RT,[1],14.50* min
"ADC1-1: antibody: Cofetuzumab; ""ADC Compounds used references"" (conjugate, chains of the INN, looked up, drug conjugate) VH: QVQLVQSGPEVKKPGASVKVSCKASGYTFTDYAVHWVRQAPGKRLEWIGVISTYNDYTYNNQDFKGRVTMTRDTSASTAYMELSRLRSEDTAVYYCARGNSYFYALDYWGQGTSVTVSS VL: EIVLTQSPATLSLSPGERATLSCRASESVDSYGKSFMHWYQQKPGQAPRLLIYRASNLESGIPARFSGSGSGTDFTLTISSLEPEDFAVYYCQQSNEDPWTFGGGTKLEIK",Emax,Ovcar3 (PTK7 high),95.76%
same,IC50,Ovcar3 (PTK7 high),0.31 nM
same,Emax,A549 (PTK7 low),38.87%
same,IC50,A549 (PTK7 low),> 200 nM
same,HIC DAR8 RT,[1],14.56* min
"ADC1-11: antibody: Cofetuzumab (conjugate, chains of the INN, looked up, drug conjugate, antibody: Cofetuzumab) VH: QVQLVQSGPEVKKPGASVKVSCKASGYTFTDYAVHWVRQAPGKRLEWIGVISTYNDYTYNNQDFKGRVTMTRDTSASTAYMELSRLRSEDTAVYYCARGNSYFYALDYWGQGTSVTVSS VL: EIVLTQSPATLSLSPGERATLSCRASESVDSYGKSFMHWYQQKPGQAPRLLIYRASNLESGIPARFSGSGSGTDFTLTISSLEPEDFAVYYCQQSNEDPWTFGGGTKLEIK",Emax,Ovcar3 (PTK7 high),100.9%
same,IC50,Ovcar3 (PTK7 high),2.1 nM
same,Emax,A549 (PTK7 low),26.44%
same,IC50,A549 (PTK7 low),> 200 nM
same,HIC DAR8 RT,[1],14.77* min
"ADC1-2: antibody: Cofetuzumab (conjugate, chains of the INN, looked up, drug conjugate, antibody: Cofetuzumab) VH: QVQLVQSGPEVKKPGASVKVSCKASGYTFTDYAVHWVRQAPGKRLEWIGVISTYNDYTYNNQDFKGRVTMTRDTSASTAYMELSRLRSEDTAVYYCARGNSYFYALDYWGQGTSVTVSS VL: EIVLTQSPATLSLSPGERATLSCRASESVDSYGKSFMHWYQQKPGQAPRLLIYRASNLESGIPARFSGSGSGTDFTLTISSLEPEDFAVYYCQQSNEDPWTFGGGTKLEIK",Emax,Ovcar3 (PTK7 high),93.47%
same,IC50,Ovcar3 (PTK7 high),0.23 nM
same,Emax,A549 (PTK7 low),34.22%
same,IC50,A549 (PTK7 low),> 200 nM
same,HIC DAR8 RT,[1],14.67* min
"ADC1-12: antibody: Cofetuzumab; ""ADC Compounds used references"" (conjugate, chains of the INN, looked up, drug conjugate) VH: QVQLVQSGPEVKKPGASVKVSCKASGYTFTDYAVHWVRQAPGKRLEWIGVISTYNDYTYNNQDFKGRVTMTRDTSASTAYMELSRLRSEDTAVYYCARGNSYFYALDYWGQGTSVTVSS VL: EIVLTQSPATLSLSPGERATLSCRASESVDSYGKSFMHWYQQKPGQAPRLLIYRASNLESGIPARFSGSGSGTDFTLTISSLEPEDFAVYYCQQSNEDPWTFGGGTKLEIK",Emax,Ovcar3 (PTK7 high),86.04%
same,IC50,Ovcar3 (PTK7 high),39.4 nM
same,Emax,A549 (PTK7 low),5.76%
same,IC50,A549 (PTK7 low),> 200 nM
same,HIC DAR8 RT,[1],13.98* min
